From US10143686B2, “Oxidosqualene cyclase as a protein target for anticancer therapeutics” (The Curators of the University of Missouri, priority 2010, dated 2018)
Structures can show the parent of a compound that is named as a salt. Where two headings read alike, the source gives them in different places.

Assays:
Type in all cases: cell-based
[1] = test system: LNCaP prostate cancer cells; experiment: SRB cell viability assay, LNCaP; conditions: Homo sapiens
Procedure: (§1) The effect of OSC inhibition was evaluated in additional cancer cell lines as well. Cancer cell lines may be purchased from ATCC (Manassas, Va.). The SRB assay has been employed for determination of the inhibitory effects of RO 48-8071 on growth of different cancer cells. Cells were seeded into 96-well plates and incubated overnight at 37° C. with 5% CO2. The culture medium was removed after 24 hours, and cells were washed with DMEM/F12 medium and then treated with various concentrations of RO 48-8071 in 5% FBS culture medium for 24 and 48 hours. Surviving or adherent cells were fixed in situ by withdrawing the growth medium, adding 100 μl PBS and 100 μl 50% trichloroacetic acid and then incubating at 4° C. for one hour. Cells were washed with ice-cold water, dried at room temperature (RT), and then stained with 50 μl 4% SRB for eight minutes at RT. Unbound dye was removed by washing with cold 1% acetic acid for five times, and plates were dried at RT. Bound stain was solubilized with 150 μl 10 mM Tris buffer and absorbance of samples was read at 520 nm with a SpecTRA MAX 190 microplate reader (Molecular Devices, Sunnyvale, Calif.). Six wells were used for each concentration, and each experiment was performed two to three times.
Effect of RO 48-8071 prostate cancer cell line LNCaP viability. […] The culture mediums employed 20% FBS RPMI-1640 for culture and 10% FBS RPMI-1640 for treatment.

[2] = test system: HCC-1428 breast cancer cells; experiment: SRB cell viability assay, HCC-1428; conditions: Homo sapiens, HCC1428, HCC-1428, Breast (ER+ PR+)
Procedure: as §1
Effect of RO 48-8071 on estrogen, progesterone, and HER-2/neu receptors positive breast cancer cell line HCC-1428 and ZR-75 viability. […]

[3] = test system: BT-474, MCF-7, BT-20 and MDA-231 human breast cancer cells; experiment: Annexin V / PI apoptosis assay, breast cancer cells; conditions: 24 hours
Text: Apoptosis is a normal physiologic process which occurs during embryonic development as well as in maintenance of tissue homeostasis. The apoptotic program is characterized by certain morphologic features, including loss of plasma membrane asymmetry and attachment, condensation of the cytoplasm and nucleus, and internucleosomal cleavage of DNA. […]. In apoptotic cells, the membrane phospholipid phosphatidylserine (PS) is translocated from the inner to the outer leaflet of the plasma membrane, thereby exposing PS to the external cellular environment. Annexin V is a 35-36 kDa Ca2+ dependent phospholipid-binding protein that has a high affinity for PS, and binds to cells with exposed PS. Annexin V may be conjugated to fluorochromes including FITC. […]
FITC Annexin V staining precedes the loss of membrane integrity which accompanies the latest stages of cell death resulting from either apoptotic or necrotic processes. […] However, when apoptosis is measured over time, cells can be often tracked from FITC Annexin V and PI negative (viable, or no measurable apoptosis), to FITC Annexin V positive and PI negative (early apoptosis, membrane integrity is present) and finally to FITC Annexin V and PI positive (end stage apoptosis and death). […]

LoVo colon cancer cells = experiment: SRB cell viability assay, LoVo; conditions: Homo sapiens
Procedure: as §1
Effect of RO 48-8071 on colon cancer cell LoVo viability. […] The culture mediums employed 10% FBS F-12K for culture and 5% FBS F-12K for treatment.

[4] = 24 hours, read-out: IC50 (μM) (24 hours)
[5] = 48 hours, read-out: IC50 (μM) (48 hours)

## C=CCN(C)CCCCCCOc1ccc(C(=O)c2ccc(Br)cc2)c(F)c1 [Ro 48-8071, 4′-[6-(Allylmethylamino)hexyloxy]-4-bromo-2′-fluorobenzophenone fumarate]
[1]; [4]
  IC50: 18.1 ± 3.22 µM
[1]; [5]
  IC50: 11.8 ± 0.431 µM
[2]; [4]
  IC50: 14.6 ± 0.417 µM
[2]; [5]
  IC50: 11.6 ± 0.336 µM
[3]
  apoptosis and cell death (annexin V / PI positive cells): Induces Apoptosis and Cell Death
LoVo colon cancer cells; [4]
  IC50: 9.461 ± 0.07 µM
LoVo colon cancer cells; [5]
  IC50: 3.27 ± 0.541 µM
